Laboratory results taken from ChEMBL document CHEMBL3352337, “Scaffold-switching: an exploration of 5,6-fused bicyclic heteroaromatics systems to afford antituberculosis activity akin to the imidazo[1,2-a]pyridine-3-carboxylates” (Bioorg Med Chem Lett, 2014).
In brackets after ≈: the same amount, converted by molar mass.

tested on: Mycobacterium tuberculosis variant bovis BCG; experiment: Antimycobacterial activity against Mycobacterium bovis BCG ATCC 35734 in 7H12 medium after 6 days and 18 hrs after adding resazurin dye/Tween 80 by Microplate Alamar Blue assay; format: functional

| SMILES | MIC |
| --- | --- |
| Cc1ccc2c(C(=O)NCc3ccccc3)c(C)[nH]c2c1 | > 128 µM |
| Cc1ccn2c(C(=O)NCc3ccccc3)nnc2c1 | > 128 µM |
| Cc1ccc2nc(C)c(C(=O)NCc3ccccc3)n2n1 | > 128 µM |
| Cc1ccn2c(C)c(C(=O)NCc3ccccc3)nc2c1 | > 128 µM |
| Cc1cnc2nc(C)c(C(=O)NCc3ccccc3)n2c1 | 7.8 µM (≈ 2.19 µg/mL) |
| COc1c(N2C[C@@H]3CCCN[C@@H]3C2)c(F)cc2c(=O)c(C(=O)O)cn(C3CC3)c12 [MOXIFLOXACIN] | 0.06 µM (≈ 0.0241 µg/mL) |
| Cc1ccc2nc(C)c(C(=O)NCc3ccccc3)n2c1 | 0.96 µM (≈ 0.268 µg/mL) |
| NNC(=O)c1ccncc1 [ISONIAZID] | 0.41 µM (≈ 0.0562 µg/mL) |
| Cc1ccc2c(C(=O)NCc3ccccc3)n[nH]c2c1 | > 128 µM |
| Cc1cc(C)n2nc(C(=O)NCc3ccccc3)nc2n1 | > 128 µM |
| CO[C@H]1/C=C/O[C@@]2(C)Oc3c(C)c(O)c4c(O)c(c(/C=N/N5CCN(C)CC5)c(O)c4c3C2=O)NC(=O)/C(C)=C\C=C\[C@H](C)[C@H](O)[C@@H](C)[C@@H](O)[C@@H](C)[C@H](OC(C)=O)[C@@H]1C [RIFAMPIN] | < 0.004 µM |
